In US20230167114A1, “MACROCYCLIC JAK INHIBITOR AND USE THEREOF” (Biopolar Hongye (Guangdong) Pharmaceutical Co., Ltd., priority 2020, published 2023):

Assays:
Assay type in all cases: biochemical
JAK2 = JAK2 (Homo sapiens, UniProt O60674); assay: JAK kinase activity, homogeneous time-resolved fluorescence (JAK2 reaction system); conditions: ATP 2 μM, JAK2 protein 0.01 ng/μL
Description: (§1) The activity measurement method of JAK kinase was to use homogeneous time-resolved fluorescence technique. The reaction was performed in 384 shallow well plates with a total reaction volume of 10 μL. The mixture of kinase protein, compound, ATP and substrate was carried out in a reaction buffer of 50 mM Hepes (pH7.0), NaN3 0.02%, BSA 0.01%, 0.1 mM orthocanadate, 5 mM MgCl2, and 1 mM DTT. After reacting for 1 hour, antibody capable of recognizing substrate phosphorylation and dye XL-615 and detection buffer (Cisbio) containing EDTA were added to the system. The reaction signal of kinase was detected by PE company's porous plate detector. The parameter settings were excitation light at 320 nm, emission light at 615 nm and 665 nm. The activity of JAK is indirectly reflected by the signal ratio of 665 nm and 615 nm. In the reaction, the background well without enzyme and the total enzyme activity well without compound were set.
(§2) The IC50 value of the compound inhibiting protein was obtained by the formula: Y=100/(1+10^((Log IC50−X)*HillSlope)).
In JAK2 reaction system, the concentration of ATP was 2 μM, and the concentration of JAK2 protein was 0.01 ng/μL.

JAK3 = molecular target: T1, JAK3 (Homo sapiens, UniProt P52333); assay: JAK kinase activity, homogeneous time-resolved fluorescence (JAK3 reaction system); conditions: ATP 2 μM, JAK3 protein 0.04 ng/μL; read-out: JAK 3 activity
T1 sequence (P52333 1-1124): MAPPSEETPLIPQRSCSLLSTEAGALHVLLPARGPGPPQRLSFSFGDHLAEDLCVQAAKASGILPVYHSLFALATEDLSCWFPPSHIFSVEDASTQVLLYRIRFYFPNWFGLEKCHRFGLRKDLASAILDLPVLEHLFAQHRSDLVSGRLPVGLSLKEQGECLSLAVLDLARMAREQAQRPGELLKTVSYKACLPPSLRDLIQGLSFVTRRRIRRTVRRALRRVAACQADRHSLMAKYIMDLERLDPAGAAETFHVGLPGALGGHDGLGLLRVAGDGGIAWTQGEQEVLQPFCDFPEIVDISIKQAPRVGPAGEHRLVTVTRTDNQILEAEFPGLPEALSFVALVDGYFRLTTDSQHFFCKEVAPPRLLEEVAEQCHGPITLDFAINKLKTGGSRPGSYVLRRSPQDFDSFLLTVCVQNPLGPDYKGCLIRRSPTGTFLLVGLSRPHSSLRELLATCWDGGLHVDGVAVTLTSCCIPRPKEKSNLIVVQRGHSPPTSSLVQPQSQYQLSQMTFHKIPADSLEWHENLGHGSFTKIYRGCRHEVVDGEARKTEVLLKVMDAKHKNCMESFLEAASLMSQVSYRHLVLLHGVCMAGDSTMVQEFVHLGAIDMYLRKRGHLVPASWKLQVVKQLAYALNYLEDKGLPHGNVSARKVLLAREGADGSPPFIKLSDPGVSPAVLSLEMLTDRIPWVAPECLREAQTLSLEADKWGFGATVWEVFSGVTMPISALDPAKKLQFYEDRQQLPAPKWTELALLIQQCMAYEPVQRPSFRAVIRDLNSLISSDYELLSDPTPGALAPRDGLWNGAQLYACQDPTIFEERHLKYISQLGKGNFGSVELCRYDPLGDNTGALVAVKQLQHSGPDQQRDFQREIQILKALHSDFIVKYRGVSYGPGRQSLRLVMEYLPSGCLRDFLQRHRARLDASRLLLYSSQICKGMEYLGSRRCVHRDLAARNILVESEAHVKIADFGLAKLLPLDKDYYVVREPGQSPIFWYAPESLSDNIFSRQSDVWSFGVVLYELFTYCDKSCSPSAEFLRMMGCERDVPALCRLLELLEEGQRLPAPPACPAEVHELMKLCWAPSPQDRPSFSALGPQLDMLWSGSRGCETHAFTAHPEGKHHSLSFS
Description: as §1, §2
In JAK3 reaction system, the concentration of ATP was 2 μM, and the concentration of JAK3 protein was 0.04 ng/μL.

JAK1 = JAK1 (Homo sapiens, UniProt P23458); assay: JAK kinase activity, homogeneous time-resolved fluorescence (JAK1 reaction system); conditions: ATP 2 μM, JAK1 protein 0.2 ng/μL; read-out: JAK 1 activity
Description: as §1, §2
In JAK1 reaction system, the concentration of ATP was 2 μM, and the concentration of JAK1 protein was 0.2 ng/μL.

TYK2 = TYK2 (Homo sapiens, UniProt P29597); assay: JAK kinase activity, homogeneous time-resolved fluorescence (TYK2 reaction system); conditions: ATP 2 μM, TYK2 protein 0.2 ng/μL; read-out: TYK 2 activity
Description: as §1, §2
In TYK2 reaction system, the concentration of ATP was 2 μM and the concentration of TYK2 protein was 0.2 ng/μL.

Chain of JAK2 (O60674 whole entry): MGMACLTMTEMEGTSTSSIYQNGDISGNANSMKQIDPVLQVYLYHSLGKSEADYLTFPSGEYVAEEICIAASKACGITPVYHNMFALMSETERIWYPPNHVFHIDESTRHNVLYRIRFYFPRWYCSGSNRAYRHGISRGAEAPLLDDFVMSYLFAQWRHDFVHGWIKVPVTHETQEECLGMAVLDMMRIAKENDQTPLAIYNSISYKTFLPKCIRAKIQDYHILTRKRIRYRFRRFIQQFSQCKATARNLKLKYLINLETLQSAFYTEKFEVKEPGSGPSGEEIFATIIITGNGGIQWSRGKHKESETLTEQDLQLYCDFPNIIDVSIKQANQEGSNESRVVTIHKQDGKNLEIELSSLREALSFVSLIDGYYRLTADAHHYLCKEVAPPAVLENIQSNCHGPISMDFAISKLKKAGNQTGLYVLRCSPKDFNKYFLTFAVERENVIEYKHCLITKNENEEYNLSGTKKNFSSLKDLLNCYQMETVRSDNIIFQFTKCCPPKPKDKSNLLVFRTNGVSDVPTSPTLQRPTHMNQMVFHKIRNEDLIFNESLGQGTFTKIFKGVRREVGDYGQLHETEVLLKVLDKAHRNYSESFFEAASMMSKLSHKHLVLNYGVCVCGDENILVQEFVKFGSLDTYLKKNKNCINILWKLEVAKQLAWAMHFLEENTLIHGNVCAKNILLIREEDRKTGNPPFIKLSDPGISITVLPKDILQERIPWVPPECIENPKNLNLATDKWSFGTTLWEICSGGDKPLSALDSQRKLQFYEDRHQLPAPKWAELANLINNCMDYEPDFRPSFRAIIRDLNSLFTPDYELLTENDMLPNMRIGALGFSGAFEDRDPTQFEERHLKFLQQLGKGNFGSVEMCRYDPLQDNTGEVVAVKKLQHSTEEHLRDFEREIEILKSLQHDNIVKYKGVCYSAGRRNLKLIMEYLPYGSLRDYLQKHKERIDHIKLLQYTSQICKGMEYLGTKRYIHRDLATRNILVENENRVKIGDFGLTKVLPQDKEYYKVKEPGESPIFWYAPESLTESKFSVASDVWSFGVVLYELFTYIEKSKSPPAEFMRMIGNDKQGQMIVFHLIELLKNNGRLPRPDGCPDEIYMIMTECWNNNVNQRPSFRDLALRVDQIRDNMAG
Chain of TYK2 (P29597 whole entry): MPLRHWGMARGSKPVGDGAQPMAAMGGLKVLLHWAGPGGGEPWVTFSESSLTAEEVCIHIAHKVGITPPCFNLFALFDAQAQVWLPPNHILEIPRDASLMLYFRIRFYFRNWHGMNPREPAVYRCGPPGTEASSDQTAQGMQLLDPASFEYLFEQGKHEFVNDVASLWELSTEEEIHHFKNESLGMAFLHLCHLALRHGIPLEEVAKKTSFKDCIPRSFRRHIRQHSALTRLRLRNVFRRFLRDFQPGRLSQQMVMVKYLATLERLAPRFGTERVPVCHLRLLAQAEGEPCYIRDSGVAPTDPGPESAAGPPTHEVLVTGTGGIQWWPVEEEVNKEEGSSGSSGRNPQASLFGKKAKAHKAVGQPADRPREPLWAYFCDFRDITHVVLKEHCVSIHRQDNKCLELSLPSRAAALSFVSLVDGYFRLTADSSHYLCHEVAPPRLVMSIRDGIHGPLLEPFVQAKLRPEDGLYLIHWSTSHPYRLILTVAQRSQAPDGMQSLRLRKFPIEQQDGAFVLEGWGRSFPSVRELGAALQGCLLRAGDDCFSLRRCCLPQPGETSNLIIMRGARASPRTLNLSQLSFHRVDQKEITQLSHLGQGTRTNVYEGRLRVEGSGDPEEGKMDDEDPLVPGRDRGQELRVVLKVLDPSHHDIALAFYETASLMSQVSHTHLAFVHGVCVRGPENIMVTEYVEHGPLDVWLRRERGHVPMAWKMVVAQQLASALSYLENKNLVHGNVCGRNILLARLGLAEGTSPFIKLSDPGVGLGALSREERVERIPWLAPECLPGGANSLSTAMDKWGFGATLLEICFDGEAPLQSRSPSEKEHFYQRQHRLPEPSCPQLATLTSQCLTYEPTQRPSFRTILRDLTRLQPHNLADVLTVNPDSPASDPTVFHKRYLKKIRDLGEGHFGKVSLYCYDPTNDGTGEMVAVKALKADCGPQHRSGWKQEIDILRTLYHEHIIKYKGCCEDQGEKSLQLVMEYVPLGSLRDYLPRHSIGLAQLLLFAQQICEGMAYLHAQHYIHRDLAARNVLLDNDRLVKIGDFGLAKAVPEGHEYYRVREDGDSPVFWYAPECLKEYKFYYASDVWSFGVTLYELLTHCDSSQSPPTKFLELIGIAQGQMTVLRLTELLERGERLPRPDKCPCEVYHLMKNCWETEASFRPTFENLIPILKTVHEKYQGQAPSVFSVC
Chain of JAK1 (P23458 whole entry): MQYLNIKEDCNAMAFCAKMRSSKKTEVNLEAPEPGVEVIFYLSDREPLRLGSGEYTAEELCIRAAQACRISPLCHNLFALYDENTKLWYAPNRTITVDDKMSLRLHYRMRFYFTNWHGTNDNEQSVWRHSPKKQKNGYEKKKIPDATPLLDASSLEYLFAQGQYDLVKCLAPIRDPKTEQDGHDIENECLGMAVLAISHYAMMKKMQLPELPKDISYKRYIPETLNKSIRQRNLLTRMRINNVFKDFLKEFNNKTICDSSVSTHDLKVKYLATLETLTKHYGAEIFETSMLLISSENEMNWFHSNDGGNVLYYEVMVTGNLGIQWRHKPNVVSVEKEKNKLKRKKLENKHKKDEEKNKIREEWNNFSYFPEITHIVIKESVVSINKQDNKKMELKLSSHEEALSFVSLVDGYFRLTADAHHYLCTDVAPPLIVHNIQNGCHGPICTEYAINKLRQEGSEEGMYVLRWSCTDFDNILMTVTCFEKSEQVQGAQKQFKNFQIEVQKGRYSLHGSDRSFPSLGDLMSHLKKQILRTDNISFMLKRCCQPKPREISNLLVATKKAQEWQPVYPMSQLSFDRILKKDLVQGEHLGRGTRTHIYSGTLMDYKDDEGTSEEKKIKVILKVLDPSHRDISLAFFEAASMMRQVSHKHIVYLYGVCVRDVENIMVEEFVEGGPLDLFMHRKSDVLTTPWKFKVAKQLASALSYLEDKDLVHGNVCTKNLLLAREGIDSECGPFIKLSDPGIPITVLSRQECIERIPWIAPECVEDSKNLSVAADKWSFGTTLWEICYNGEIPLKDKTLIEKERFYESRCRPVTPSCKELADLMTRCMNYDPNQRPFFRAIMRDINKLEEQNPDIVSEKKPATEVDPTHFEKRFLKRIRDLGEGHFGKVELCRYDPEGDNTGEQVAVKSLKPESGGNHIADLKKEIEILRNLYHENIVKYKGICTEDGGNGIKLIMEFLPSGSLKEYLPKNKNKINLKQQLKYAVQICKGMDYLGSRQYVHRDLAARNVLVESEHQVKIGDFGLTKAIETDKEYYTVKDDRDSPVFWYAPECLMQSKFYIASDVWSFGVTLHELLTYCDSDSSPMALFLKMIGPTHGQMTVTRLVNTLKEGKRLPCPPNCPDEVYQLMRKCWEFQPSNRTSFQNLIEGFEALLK

IC50 (JAK2) [nM]	IC50 (JAK3) [nM]	IC50 (JAK1) [nM]	IC50 (TYK2) [nM]	SMILES
1000 to 10000	1000 to 10000	101 to 1000	> 10000	CNC(=O)c1cc2ccc1C(=O)NCCCCCNc1nc(ncc1C)Nc1cc-2cnc1F [Compound 40, 2^6-fluoro-N,4^5-dimethyl-12-oxo-3,5,11-triaza-4(2,4)-pyrimidina-2(3,5)-pyridina-1(1,4)-benzenacyclododecaphane-1^3-formamide]
101 to 1000	1000 to 10000	11 to 100	1000 to 10000	Cc1cnc2nc1NCCCCCNC(=O)c1ccc(cc1[N+](=O)[O-])-c1cnc(F)c(c1)N2 [Compound 10, 2^6-fluoro-4^5-methyl-1^3-nitro-3,5,11-triaza-4(2,4)-pyrimidina-2(3,5)-pyridina-1(1,4)-benzenacydododecaphan-12-one]
101 to 1000	1000 to 10000	101 to 1000	> 10000	Cc1cnc2nc1NCCCCCCNC(=O)c1ccc(cc1F)-c1cnc(F)c(c1)N2 [Compound 13, I^3,2^6-difluoro-4^5-methyl-3,5,12-triaza-4(2,4)-pyrimidina-2(3,5)-pyridina-1(1,4)-benzenacyclotridecaphan-13-one]
1000 to 10000	> 10000	1000 to 10000	> 10000	CCNc1cc2ccc1C(=O)NCCCCCNc1nc(ncc1C)Nc1cc-2cnc1F [Compound 44, 1^3-(ethylamino)-2^6-difluoro-4^5-methyl-3,5,11-triaza-4(2,4)-pyrimidina-2(3,5)-pyridina-1(1,4)-benzenacyclododecaphan-12-one]
101 to 1000	101 to 1000	101 to 1000	> 10000	CC(=O)Nc1cc2ccc1C(=O)NCCCCCNc1nc(ncc1C)Nc1cc-2cnc1F [Compound 43, N-(2^6-fluoro-4^5-methyl-12-oxo-3,5,11-triaza-4(2,4)-pyrimidina-2(3,5)-pyridina-1(l,4)-benzenacyclododecaphane-1^3-yl) acetamide]
11 to 100	101 to 1000	101 to 1000	1000 to 10000	Cc1cnc2nc1NCCCCCNC(=O)c1ccc(cc1C(=O)O)-c1cnc(F)c(c1)N2 [Compound 21]
1000 to 10000	1000 to 10000	101 to 1000	> 10000	COc1cc2ccc1C(=O)NCCCCCNc1nc(ncc1C)Nc1cc-2cnc1F [Compound 8, 2^6-fluoro-1^3-methoxy-4^5-methyl-3,5,11-triaza-4(2,4)-pyrimidina-2(3,5)-pyridina-1(1,4)-benzenacyclododecaphan-12-one]

Further lines, the molecule ahead of its results:

SMILES	IC50 (JAK2) [nM]	IC50 (JAK3) [nM]	IC50 (JAK1) [nM]	IC50 (TYK2) [nM]
COc1cnc2nc1NCCCCCNC(=O)c1ccc(cc1)-c1cnc(F)c(c1)N2 [Compound 5, 2^6-fluoro-4^5-methoxy-3,5,11-triaza-4(2,4)-pyrimidina-2(3,5)-pyridina-1(1,4)-benzenacyclododecaphan-12-one]	1000 to 10000	1000 to 10000	1000 to 10000	> 10000
Cc1cnc2nc1NCCCCCNC(=O)c1ccc(cc1)-c1cnc(F)c(c1)N2 [Compound 1, 2^6-fluoro-4^5-methyl-3,5,11-triaza-4 (2,4)-pyrimidina-2(3,5)-pyridina-1(1,4)-benzenacyclododecaphan-12-one]	1000 to 10000	1000 to 10000	101 to 1000	> 10000
Cc1cnc2nc1Nc1cccc(c1)CCCNC(=O)c1ccc(cc1[N+](=O)[O-])-c1cnc(F)c(c1)N2 [Compound 38, 2^6-fluoro-4^5-methyl-1^3-nitro-3,5,10-triaza-4(2,4)-pyrimidina-2(3,5)-pyridina-1(1,4),6(1,3)-dibenzenacycloundecaphan-11-one]	< 10	11 to 100	< 10	101 to 1000
COC(=O)c1cc2ccc1C(=O)NCCCc1cccc(c1)Nc1nc(ncc1C)Nc1cc-2cnc1F [Compound 36, Methyl 2^6-fluoro-4^5-methyl-11-oxo-3,5,10-triaza-4(2,4)-pyrimidina-2(3,5)-pyridina-1(1,4),6(1,3)-dibenzenacycloundecaphan-1^3-carboxylate]	< 10	11 to 100	< 10	101 to 1000
Cc1cnc2nc1NCCCCCNC(=O)c1ccc(c(S(C)(=O)=O)c1)-c1cnc(F)c(c1)N2 [Compound 26, 2^6-fluoro-4^5-methyl-1^2-(methylsulfonyl)-3,5,11-triaza-4(2,4)-pyrimidina-2(3,5)-pyridina-1(1,4)-benzenacyclododecaphan-12-one]	1000 to 10000	1000 to 10000	1000 to 10000	> 10000
Cc1cnc2nc1Nc1cccc(c1)CCCC(=O)N1CCN(CC1)c1cnc(F)c(c1)N2 [Compound 35, 2^6-fluoro-4^5-methyl-3,5-diaza-4(2,4)-pyrimidina-1(1,4)-piperazina-2(3,5)-pyridina-6(1,3)-benzenacyclodecaphan-10-one]	11 to 100	101 to 1000	< 10	101 to 1000
Cc1cnc2nc1NCCCCCNC(=O)c1ccc(c(F)c1F)-c1cnc(F)c(c1)N2 [Compound 34, 1^2,l^3,2^6-trifluoro-4^5-methyl-3,5,11-triaza-4(2,4)-pyrimidina-2(3,5)-pyridina-1(1,4)-benzenacydododecaphan-12-one]	101 to 1000	101 to 1000	101 to 1000	> 10000
Cc1cnc2nc1Nc1cccc(c1)CCNC(=O)c1ccc(cc1S(C)(=O)=O)-c1cnc(F)c(c1)N2 [Compound 24, 2^6-fluoro-4^5-methyl-1^3-(methylsulfonyl)-3,5,9-triaza-4(2,4)-pyrimidina-2(3,5)-pyridina-1(1,4),6(1,3)-dibenzenacyclodecaphan-10-one]	< 10	11 to 100	< 10	101 to 1000
Cc1cnc2nc1Nc1cccc(c1)CCCNC(=O)c1ccc(cc1S(C)(=O)=O)-c1cnc(F)c(c1)N2 [Compound 25, 2^6-fluoro-4^5-methyl-1^3-(methylsulfonyl)-3,5,10-triaza-4(2,4)-pyrimidina-2(3,5)-pyridina-1(1,4),6(1,3)-dibenzenacycloundecaphan-11-one]	< 10	11 to 100	< 10	101 to 1000
Cc1cnc2nc1Nc1ccccc1CCNC(=O)c1ccc(cc1F)-c1cnc(F)c(c1)N2 [Compound 30, 1^3,6^6-difluoro-4^5-methyl-1^3-3,5,9-triaza-4(2,4)-pyrimidina-1(5,2),2(3,5)-dipyridina-6(1,2)-benzenacyclodecaphan-10-one]	11 to 100	101 to 1000	11 to 100	1000 to 10000
Cc1cnc2nc1Nc1cccc(c1)CCCNC(=O)c1ccc(cc1C(=O)O)-c1cnc(F)c(c1)N2 [Compound 37, 2^6-fluoro-4^5-methyl-11-oxo-3,5,10-triaza-4(2,4)-pyrimidina-2(3,5)-pyridina-1(1,4),6(1,3)-dibenzenacycloundecaphan-1^3 - formic acid]	11 to 100	101 to 1000	11 to 100	1000 to 10000
